# Reference: patent US12697366B2, “Thermogenic compositions and methods” (Ohio State Innovation Foundation, priority 2016, dated 2026)
# System: PPARα-LBD
# Experiment: PPARα-LBD luciferase reporter in transiently transfected HEK293 cells
# Type: cell-based, human
# Conditions: EREG, 12 hrs
# Description: FIGS. 11A to 11I show adipokine Ereg is bilaterally associated with obesity and thermogenesis and activates PPARα. […] Microarray gene analysis was performed using Affymetrix microarray. FIG. 11B: Ereg expression was measured in non-differentiated and differentiated (day 5) 3T3-L1 adipocytes (Mann-Whitney test) using a customized NanoString mouse panel. FIG. 11C: Ereg expression was measured in differentiated (day 5) 3T3-L1 and Aldh1a1^−/− adipocytes by Taqman and normalized to TATA box protein (TBP). FIG. 11D: Plasma EREG concentrations were measured in mice from Study 1 by western blot. […] FIG. 11E: Plasma EREG concentrations were measured and quantified in iAb of WT and ob/ob mice from Study 2 by western blot (n=5 per each group). […] FIG. 11F: EREG was measured in iAb, subcutaneous and brown fat by western blot. Fat pads were dissected from WT mice on regular chow (Study 1). FIG. 11G: Ucp2 and Ucp1 expression was measured in differentiated 3T3-L1 adipocytes (day 5) stimulated with vehicle (PBS) or recombinant EREG (50 ng/mL) added in the differentiation medium I and II. Expression level were measured by Taqman and normalized by TBP. FIGS. 11H and 11I: HEK293 cells were transiently transfected with PPARα-LBD, UASTK-luciferase, and renilla. […] Data represents % PPARα-LBD activation. Asterisks indicate significant difference (p<0.05) compared to vehicle control, #, indicates statistical difference between PPARα-LBD activation by EREG alone and in the presence of inhibitors. Data represent mean±SD. The Mann-Whitney test was used throughout these studies for group comparison.
# HEK293 cells ([…] cells, 24-well plates) were used for transient transfection experiments. Cells were transfected with human PPARα-LBD construct, yeast UASTK luciferase reporter (SwitchGear Genomics, Menlo Park, CA), using Fugene (Roche Applied Science, Indianapolis, IN). Transfections were carried out in OptiMeM (Invitrogen, Carlsbad, CA) medium for 12 hours as described previously. Luciferase was measured using Promega assay according to manufacturer's instructions
substance,measurement,value
"EREG: Epiregulin, member of the epidermal growth factor family; recombinant mouse or human protein",induction of PPARα (PPARα-LBD activation),dose dependent induction
